This note sets out measurements from patent publication US20230117034A1, “PYRAZOLOTRIAZINES” (Bayer Aktiengesellschaft, priority 2019, published 2023).

Test [1] has as its system MDA-MB-231, human breast cancer cells. The test can be described thus: Proliferation assay MDA-MB-231 (crystal violet, 4 days). Particulars: Homo sapiens, MDA-MB-231, 96 h, MDA-MB-231 cells, median, read-out: Prolif-MDA MB-231, IC50-[mol/l] (median). It is filed as cell-based. As for the experimental part:
Human tumour cells were originally obtained from the American Type Culture Collection (ATCC), or from the Deutsche Sammlung von Mikroorganismen und Zellkulturen (DSMZ, German Collection of Microorganisms and Cell Cultures). Cultivated tumour cells (CAL-120, human breast adenocarcinoma cells, DSMZ ACC-459; MDA-MB-231, human breast cancer cells, ATCC HTB-26) were plated at a density of 4,000 cells/well in a 96-well multititer plate in 200 microL of their respective growth medium supplemented 10% fetal calf serum. After 24 hours, the cells of one plate (zero-point plate) were stained with crystal violet (see below), while the medium of the other plates was supplemented with the test substances in various concentrations (0 micromol/L, as well as in the range of 0.01-10 micromol/L; the final concentration of the solvent dimethyl sulfoxide was adjusted to 0.1%) using a Tecan HP D300 Digital Dispenser. The cells were incubated for 4 days in the presence of test substances. Cell proliferation was determined by staining the cells with crystal violet: the cells were fixed by adding 20 microL/measuring point of an 11% glutaric aldehyde solution for 15 minutes at room temperature. After three washing cycles of the fixed cells with water, the plates were dried at room temperature. The cells were stained by adding 100 microL/measuring point of a 0.1% crystal violet solution (pH 3.0). After three washing cycles of the stained cells with water, the plates were dried at room temperature. The dye was dissolved by adding 100 microL/measuring point of a 10% acetic acid solution. The extinction was determined by photometry at a wavelength of 595 nm. The change of cell number, in percent, was calculated by normalization of the measured values to the extinction values of the zero-point plate (=0%) and the extinction of the untreated (0 μM) cells (=100%). The IC50 values (inhibitory concentration at 50% of maximal effect) were determined by means of a 4 parameter fit.

In another test the target is T1, CDK9/CycT1 (Homo sapiens, UniProt P50750).
T1 construct: Recombinant full-length His-tagged human CDK9 and CycT1; purchased Life Technologies PV4131; host or cells: insect cells
In words: CDK9/CycT1 high ATP kinase assay (TR-FRET, 2 mM ATP). It is filed as biochemical. Particulars: 2 mM ATP (high ATP); median; read-out: CDK9/CyclinT1, 2 mM ATP (high ATP), IC50 (median). As for the experimental part:
CDK9/CycT1-inhibitory activity of compounds of the present invention at a high ATP concentration after preincubation of enzyme and test compounds was quantified employing the CDK9/CycT1 TR-FRET assay as described in the following paragraphs.
Recombinant full-length His-tagged human CDK9 and CycT1, expressed in insect cells and purified by Ni-NTA affinity chromatography, were purchased from Life Technologies (Cat. No PV4131). As substrate for the kinase reaction biotinylated peptide biotin-Ttds-[…] (C-terminus in amide form) was used which can be purchased e.g. form the company JERINI peptide technologies (Berlin, Germany).
For the assay 50 nanoL of a 100 fold concentrated solution of the test compound in DMSO was pipetted into either a black low volume 384 well microtiter plate or a black 1536 well microtiter plate (both Greiner Bio-One, Frickenhausen, Germany), 2 microL of a solution of CDK9/CycT1 in aqueous assay buffer [50 millimol/L Tris/HCl pH 8.0, 10 millimol/L MgCl2, 1.0 millimol/L dithiothreitol, 0.1 millimol/L sodium ortho-vanadate, 0.01% (v/v) Nonidet-P40 (Sigma)] were added and the mixture was incubated for 15 min at 22° C. to allow pre-binding of the test compounds to the enzyme before the start of the kinase reaction. […] The concentration of CDK9/CycT1 was adjusted depending of the activity of the enzyme lot and was chosen appropriate to have the assay in the linear range, typical concentrations were in the range of 0.5 microg/ml.
The resulting mixture was incubated 1 h at 22° C. to allow the formation of complex between the phosphorylated biotinylated peptide and the detection reagents. Subsequently the amount of phosphorylated substrate was evaluated by measurement of the resonance energy transfer from the Eu-chelate to the streptavidine-XL. Therefore, the fluorescence emissions at 620 nm and 665 nm after excitation at 350 nm was measured in a TR-FRET reader, e.g. a Pherastar (BMG Labtechnologies, Offenburg, Germany) or a Viewlux (Perkin-Elmer). The ratio of the emissions at 665 nm and at […] was taken as the measure for the amount of phosphorylated substrate.

The structures appear in SMILES notation. Bounds are passed on as bounds.

T1 sequence (P50750 whole entry): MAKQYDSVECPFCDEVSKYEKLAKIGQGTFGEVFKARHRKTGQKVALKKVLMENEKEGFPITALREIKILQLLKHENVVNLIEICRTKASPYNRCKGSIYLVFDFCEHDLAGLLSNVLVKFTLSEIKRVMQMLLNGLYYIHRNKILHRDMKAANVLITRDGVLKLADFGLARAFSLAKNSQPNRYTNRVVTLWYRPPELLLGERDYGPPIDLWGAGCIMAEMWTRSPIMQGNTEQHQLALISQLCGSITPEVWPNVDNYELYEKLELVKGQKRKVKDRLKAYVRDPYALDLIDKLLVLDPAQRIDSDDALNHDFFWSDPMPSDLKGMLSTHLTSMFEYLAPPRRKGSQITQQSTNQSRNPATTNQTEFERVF
T1 sequence (O60563 whole entry partner): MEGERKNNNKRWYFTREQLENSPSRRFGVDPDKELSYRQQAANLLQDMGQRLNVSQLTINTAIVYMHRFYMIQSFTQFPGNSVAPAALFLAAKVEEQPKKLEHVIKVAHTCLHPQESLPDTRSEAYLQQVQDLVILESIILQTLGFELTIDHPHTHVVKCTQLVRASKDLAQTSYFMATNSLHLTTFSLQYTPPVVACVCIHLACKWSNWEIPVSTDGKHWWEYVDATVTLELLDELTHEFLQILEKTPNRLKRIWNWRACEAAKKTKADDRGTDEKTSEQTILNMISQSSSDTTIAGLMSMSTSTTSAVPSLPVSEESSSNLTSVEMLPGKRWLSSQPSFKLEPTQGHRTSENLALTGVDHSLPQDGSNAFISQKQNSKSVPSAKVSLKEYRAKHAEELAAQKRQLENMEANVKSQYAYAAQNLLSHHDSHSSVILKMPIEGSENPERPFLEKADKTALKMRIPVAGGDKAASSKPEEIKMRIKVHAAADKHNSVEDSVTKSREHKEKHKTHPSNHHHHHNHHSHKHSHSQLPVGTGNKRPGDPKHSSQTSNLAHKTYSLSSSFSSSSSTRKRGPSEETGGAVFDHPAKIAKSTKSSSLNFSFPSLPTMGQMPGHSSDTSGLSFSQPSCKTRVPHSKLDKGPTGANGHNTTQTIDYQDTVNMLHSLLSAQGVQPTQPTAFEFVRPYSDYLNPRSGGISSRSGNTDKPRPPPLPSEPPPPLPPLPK

For the compound `C[C@@H]1CN(c2nc(NCc3nnc(-c4ccccc4)[nH]3)n3ncc(Br)c3n2)CCN1C.O=CO` [Example 130, 8-bromo-2-[(3R)-3,4-dimethylpiperazin-1-yl]-N-[(5-phenyl-4H-1,2,4-triazol-3-yl)methyl]pyrazolo[1,5-a][1,3,5]triazin-4-amine formate], the results for the IC50 (in test [1]; at CDK9/CycT1) were 35.6 nM and 4860 nM, respectively.

`COc1ccc2[nH]c(CNc3nc(N4CCN(C)CC4)nc4c(Br)cnn34)nc2c1` [Example 161, 8-bromo-N-[(5-methoxy-1H-benzimidazol-2-yl)methyl]-2-(4-methylpiperazin-1-yl)pyrazolo[1,5-a][1,3,5]triazin-4-amine]: the IC50 was 11.3 nM in test [1] and greater than 20000 nM on CDK9/CycT1.

For `Cc1ccc2[nH]c(CNc3nc(N4CCOCC4)nc4c(Br)cnn34)nc2c1` [Example 157, 8-bromo-N-[(5-methyl-1H-benzimidazol-2-yl)methyl]-2-(morpholin-4-yl)pyrazolo[1,5-a][1,3,5]triazin-4-amine], the IC50 in test [1] was 4.79 nM; on CDK9/CycT1, greater than 20000 nM.

On to `C[C@@H]1CN(c2nc(NCc3nnc(-c4ccccc4)[nH]3)n3ncc(Br)c3n2)C[C@H](C)N1` [Example 127, 8-bromo-2-[(3R,5S)-3,5-dimethylpiperazin-1-yl]-N-[(5-phenyl-4H-1,2,4-triazol-3-yl)methyl]pyrazolo[1,5-a][1,3,5]triazin-4-amine], for which the IC50 in test [1] was 32.5 nM; on CDK9/CycT1, 6320 nM.

`CC(C)c1cnn2c(NCc3nc4ccccc4[nH]3)nc(N3CCOC[C@@H]3C)nc12` [Example 6, N-[(1H-benzimidazol-2-yl)methyl]-2-[(3S)-3-methylmorpholin-4-yl]-8-(propan-2-yl)pyrazolo[1,5-a][1,3,5]triazin-4-amine]: the IC50 was 16.1 nM in test [1] and greater than 16100 nM at CDK9/CycT1.

Turning to `Brc1cnn2c(NCc3nc4ccccc4[nH]3)nc(N3C[C@@H]4CCCN[C@@H]4C3)nc12` [Example 146, N-[(1H-benzimidazol-2-yl)methyl]-8-bromo-2-[(4aS,7aS)-octahydro-6H-pyrrolo[3,4-b]pyridin-6-yl]pyrazolo[1,5-a][1,3,5]triazin-4-amine], the IC50 in test [1] is 43.3 nM; at CDK9/CycT1, greater than 20000 nM.

Regarding `Brc1cnn2c(NCc3nc4ccccc4[nH]3)nc(N3CCNCC3)nc12` [Example 128, N-[(1H-benzimidazol-2-yl)methyl]-8-bromo-2-(piperazin-1-yl)pyrazolo[1,5-a][1,3,5]triazin-4-amine], the IC50 was 16 nM in test [1] and greater than 20000 nM on CDK9/CycT1.

`CC(C)c1cnn2c(NCc3nc4ccccc4[nH]3)nc(NCC(C)(C)O)nc12` [Example 10, 1-{[4-{[(1H-benzimidazol-2-yl)methyl]amino}-8-(propan-2-yl)pyrazolo[1,5-a][1,3,5]triazin-2-yl]amino}-2-methylpropan-2-ol]: the IC50 in test [1] was 79.9 nM; at CDK9/CycT1, greater than 20000 nM.

Turning to `Brc1cnn2c(NCc3nc4ccccc4[nH]3)nc(N3CCC3)nc12` [Example 143, 2-(azetidin-1-yl)-N-[(1H-benzimidazol-2-yl)methyl]-8-bromopyrazolo[1,5-a][1,3,5]triazin-4-amine], the IC50 in test [1] is 827 nM; on CDK9/CycT1 it was greater than 20000 nM.

For `CC1CN(C)CCN1c1nc(NCc2nc3ccccc3[nH]2)n2ncc(Br)c2n1` (stereo not drawn) [Example 156, N-(1H-benzimidazol-2-ylmethyl)-8-bromo-2-(2,4-dimethylpiperazin-1-yl)pyrazolo[1,5-a][1,3,5]triazin-4-amine], the IC50 in test [1] was 20.5 nM; on CDK9/CycT1 it was greater than 20000 nM.

Turning to `C[C@H]1CCCCN1c1nc(NCc2nc3ccccc3[nH]2)n2ncc(Br)c2n1` [Example 141, N-[(1H-benzimidazol-2-yl)methyl]-8-bromo-2-[(2S)-2-methylpiperidin-1-yl]pyrazolo[1,5-a][1,3,5]triazin-4-amine], the results for the IC50 (in test [1]; on CDK9/CycT1) were 37.8 nM and 12900 nM, respectively.

With `C[C@@H]1CN(c2nc(NCc3nc4ccccc4[nH]3)n3ncc(Br)c3n2)C[C@H](C)N1` [Example 142, N-(1H-benzimidazol-2-ylmethyl)-8-bromo-2-[(3R,5S)-3,5-dimethylpiperazin-1-yl]pyrazolo[1,5-a][1,3,5]triazin-4-amine], the values for the IC50 (in test [1]; at CDK9/CycT1) were 23.7 nM and greater than 20000 nM, respectively.

Take `Brc1cnn2c(NCc3nnc(-c4ccccc4)[nH]3)nc(N3C[C@H]4C[C@@H]3CO4)nc12` [Example 118, 8-bromo-2-[(1R,4R)-2-oxa-5-azabicyclo[2.2.1]heptan-5-yl]-N-[(5-phenyl-4H-1,2,4-triazol-3-yl)methyl]pyrazolo[1,5-a][1,3,5]triazin-4-amine]: the IC50 at CDK9/CycT1 worked out at 3630 nM.

For `CC1(C)CN(c2nc(NCc3nc4ccccc4[nH]3)n3ncc(C4CC4)c3n2)CCO1` [Example 123, N-[(1H-benzimidazol-2-yl)methyl]-8-cyclopropyl-2-(2,2-dimethylmorpholin-4-yl)pyrazolo[1,5-a][1,3,5]triazin-4-amine], the IC50 on CDK9/CycT1 is greater than 20000 nM.

On to `CC(C)c1cnn2c(NCc3nc4ccccc4[nH]3)nc(N3CCCOCC3)nc12` [Example 8, N-[(1H-benzimidazol-2-yl)methyl]-2-(1,4-oxazepan-4-yl)-8-(propan-2-yl)pyrazolo[1,5-a][1,3,5]triazin-4-amine], for which, at CDK9/CycT1, the IC50 is greater than 20000 nM.

Take `Fc1cccc2[nH]c(CNc3nc(N4CCOCC4)nc4c(Br)cnn34)nc12` [Example 97, 8-bromo-N-[(4-fluoro-1H-benzimidazol-2-yl)methyl]-2-(morpholin-4-yl)pyrazolo[1,5-a][1,3,5]triazin-4-amine]: the IC50 on CDK9/CycT1 is 13400 nM.

For the compound `Fc1ccc(-c2nnc(CNc3nc(N4CCOCC4)nc4c(Br)cnn34)[nH]2)cc1F` [Example 99, 8-bromo-N-{[5-(3,4-difluorophenyl)-4H-1,2,4-triazol-3-yl]methyl}-2-(morpholin-4-yl)pyrazolo[1,5-a][1,3,5]triazin-4-amine], the IC50 on CDK9/CycT1 worked out at 970 nM.

`c1cncc(-c2cnn3c(NCc4nc5ccccc5[nH]4)nc(N4CCOCC4)nc23)c1` [Example 108, N-[(1H-benzimidazol-2-yl)methyl]-2-(morpholin-4-yl)-8-(pyridin-3-yl)pyrazolo[1,5-a][1,3,5]triazin-4-amine]: the IC50 at CDK9/CycT1 was greater than 20000 nM.

For `CCC1COCCN1c1nc(NCc2nc3ccccc3[nH]2)n2ncc(Br)c2n1` (stereo not drawn) [Example 116, N-(1H-benzimidazol-2-ylmethyl)-8-bromo-2-(3-ethylmorpholin-4-yl)pyrazolo[1,5-a][1,3,5]triazin-4-amine], the IC50 at CDK9/CycT1 was greater than 20000 nM.

Turning to `C[C@@H]1CN(c2nc(NCc3nc4cc(F)ccc4[nH]3)n3ncc(Br)c3n2)C[C@H](C)O1` [Example 110, 8-bromo-2-[(2R,6S)-2,6-dimethylmorpholin-4-yl]-N-[(5-fluoro-1H-benzimidazol-2-yl)methyl]pyrazolo[1,5-a][1,3,5]triazin-4-amine], the IC50 at CDK9/CycT1 came out at 5470 nM.

Consider `Fc1cc(F)cc(-c2nnc(CNc3nc(N4CCOCC4)nc4c(Br)cnn34)[nH]2)c1` [Example 105, 8-bromo-N-{[5-(3,5-difluorophenyl)-4H-1,2,4-triazol-3-yl]methyl}-2-(morpholin-4-yl)pyrazolo[1,5-a][1,3,5]triazin-4-amine], for which the IC50 at CDK9/CycT1 is 613 nM.
